Reference: ChEMBL document CHEMBL1201862, “PubChem BioAssay data set” (2004)
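Five compound concentrations were applied to cells in 96-well plates for 48 hours; endpoints were derived by simple linear interpolation of the resulting dose-response curve. GI50 is the concentration that inhibits growth by half.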 The source made the active and inactive calls. No stated cut-off is given here; in the data, active = GI50 up to about 1.1 µM and inactive = higher.

How the values were obtained:
Assay in all cases: growth of human tumour cells (NCI), 48 h
ACHN = system: ACHN
HOP-62 = system: HOP-62
MOLT-4 = system: MOLT-4
HCT-15 = system: HCT-15
SF-268 = system: SF-268
SR = system: SR
EKVX = system: EKVX
NCI-H226 = system: NCI-H226
HL-60 = system: HL-60
MCF7 = system: MCF7
SF-539 = system: SF-539
OVCAR-3 = system: OVCAR-3
IGROV-1 = system: IGROV-1
HCT-116 = system: HCT-116
SW-620 = system: SW-620
SN12C = system: SN12C
KM12 = system: KM12
TK-10 = system: TK-10
UACC-62 = system: UACC-62
MDA-MB-435 = system: MDA-MB-435

Structure (SMILES) | GI50 (ACHN) | GI50 (HOP-62) | GI50 (MOLT-4) | GI50 (HCT-15) [µM] | GI50 (SF-268) | GI50 (SR) | GI50 (EKVX) | GI50 (NCI-H226) | GI50 (HL-60) | GI50 (MCF7) | GI50 (SF-539) | GI50 (OVCAR-3) | GI50 (IGROV-1) | GI50 (HCT-116) | GI50 (SW-620) | GI50 (SN12C) | GI50 (KM12) | GI50 (TK-10) | GI50 (UACC-62) | GI50 (MDA-MB-435)
COc1ccccc1NC(=O)O/N=C(/Cl)C(C)C | 5.92 µM (inactive) | 12.5 µM (inactive) | 1.92 µM (inactive) | 13.2 | 16.6 µM (inactive) | 1.91 µM (inactive) | 16.1 µM (inactive) | 20.8 µM (inactive) | 1.64 µM (inactive) | > 10 µM (inactive) | 19.5 µM (inactive) | 6.19 µM (inactive) | 16.7 µM (inactive) | 14.1 µM (inactive) | 1.82 µM (inactive) | 15.4 µM (inactive) | 20.2 µM (inactive) | 13.6 µM (inactive) | 17.5 µM (inactive) | –
Cc1cccc(C)c1NC(=O)C(=O)C1C(=O)NC(=O)NC1=O | > 100 µM (inactive) | > 100 µM (inactive) | > 100 µM (inactive) | > 100 | > 100 µM (inactive) | > 100 µM (inactive) | > 100 µM (inactive) | > 100 µM (inactive) | > 100 µM (inactive) | – | > 100 µM (inactive) | > 100 µM (inactive) | > 100 µM (inactive) | > 100 µM (inactive) | > 100 µM (inactive) | > 100 µM (inactive) | > 100 µM (inactive) | > 100 µM (inactive) | > 100 µM (inactive) | –
COc1cc(/C=C(\C#N)C(=O)c2ccccc2)cc(OC)c1OC | > 100 µM (inactive) | > 100 µM (inactive) | > 100 µM (inactive) | > 100 | > 100 µM (inactive) | > 100 µM (inactive) | > 100 µM (inactive) | > 100 µM (inactive) | > 100 µM (inactive) | – | > 100 µM (inactive) | > 100 µM (inactive) | – | > 100 µM (inactive) | > 100 µM (inactive) | > 100 µM (inactive) | > 100 µM (inactive) | > 100 µM (inactive) | > 100 µM (inactive) | –
CC(C)(C)c1ccc(Oc2ccc(C#N)c(C#N)c2)c(C(C)(C)C)c1 | 34.9 µM (inactive) | > 100 µM (inactive) | 17.4 µM (inactive) | 14.4 | 32.7 µM (inactive) | 18.7 µM (inactive) | 58.2 µM (inactive) | 46.6 µM (inactive) | 10.4 µM (inactive) | – | > 93.5 µM (inactive) | 40.1 µM (inactive) | > 89.7 µM (inactive) | 24.6 µM (inactive) | 49.3 µM (inactive) | 43 µM (inactive) | 29.8 µM (inactive) | > 100 µM (inactive) | 52.1 µM (inactive) | –
N#CC(/C(=N\NC(N)=S)C(=O)NC1C2CC3CC(C2)CC1C3)c1ccc(Cl)cc1 (configuration not stated) | > 100 µM (inactive) | > 100 µM (inactive) | > 100 µM (inactive) | > 100 | > 100 µM (inactive) | > 100 µM (inactive) | > 100 µM (inactive) | > 100 µM (inactive) | > 100 µM (inactive) | – | > 100 µM (inactive) | > 100 µM (inactive) | > 100 µM (inactive) | > 100 µM (inactive) | > 100 µM (inactive) | > 100 µM (inactive) | > 100 µM (inactive) | > 100 µM (inactive) | > 100 µM (inactive) | –
O=C(O)CCSC(=O)Nc1ccccc1 | 97.9 µM (inactive) | > 100 µM (inactive) | > 100 µM (inactive) | > 100 | 44.8 µM (inactive) | > 100 µM (inactive) | > 100 µM (inactive) | > 100 µM (inactive) | > 100 µM (inactive) | – | > 100 µM (inactive) | > 100 µM (inactive) | 94.6 µM (inactive) | > 100 µM (inactive) | 92.9 µM (inactive) | > 100 µM (inactive) | > 100 µM (inactive) | > 100 µM (inactive) | 64.4 µM (inactive) | –
N#CC1(C#N)C(c2ccccc2)C=CC12OCCCO2 (configuration not stated) | 42.7 µM (inactive) | > 100 µM (inactive) | 26.7 µM (inactive) | – | 28.4 µM (inactive) | 27 µM (inactive) | 59.3 µM (inactive) | 78.7 µM (inactive) | 23.4 µM (inactive) | – | 21.6 µM (inactive) | 33 µM (inactive) | 60.5 µM (inactive) | 24.9 µM (inactive) | 31.1 µM (inactive) | 32.6 µM (inactive) | 38.1 µM (inactive) | 48.9 µM (inactive) | 33.3 µM (inactive) | –
CCCCC(C(=O)CCC(=O)Nc1ccc(Cl)cc1)C(=O)C(C)C (configuration not stated) | > 100 µM (inactive) | > 100 µM (inactive) | > 100 µM (inactive) | > 100 | > 100 µM (inactive) | > 100 µM (inactive) | > 100 µM (inactive) | > 100 µM (inactive) | > 100 µM (inactive) | – | > 100 µM (inactive) | > 100 µM (inactive) | > 100 µM (inactive) | > 100 µM (inactive) | > 100 µM (inactive) | > 100 µM (inactive) | > 100 µM (inactive) | > 100 µM (inactive) | 18.2 µM (inactive) | –
O=C1CNC(=O)/C(=C/c2c[nH]c3ccccc23)N1 | > 100 µM (inactive) | > 100 µM (inactive) | > 100 µM (inactive) | > 100 | > 100 µM (inactive) | – | > 100 µM (inactive) | > 100 µM (inactive) | 36.3 µM (inactive) | > 100 µM (inactive) | – | > 100 µM (inactive) | > 100 µM (inactive) | > 100 µM (inactive) | > 100 µM (inactive) | > 100 µM (inactive) | > 100 µM (inactive) | > 100 µM (inactive) | > 100 µM (inactive) | > 100 µM (inactive)
CN1OC2OC(=O)OC2[C@H]1[C@H]1O[C@H](c2ccccc2)OC1(C)c1cc(OC(=O)c2ccccc2)ccc1OC(=O)c1ccccc1 (some centres not stated) | > 50 µM (inactive) | > 50 µM (inactive) | > 50 µM (inactive) | > 50 | > 50 µM (inactive) | > 50 µM (inactive) | > 50 µM (inactive) | > 50 µM (inactive) | > 50 µM (inactive) | – | > 50 µM (inactive) | > 50 µM (inactive) | > 50 µM (inactive) | > 50 µM (inactive) | > 50 µM (inactive) | > 50 µM (inactive) | > 50 µM (inactive) | > 50 µM (inactive) | – | –
OCC(O)C(O)C(O)c1nn(-c2ccc(Cl)cc2)c2nc3cc(Cl)c(Cl)cc3nc12 (configuration not stated) | 73.1 µM (inactive) | 20.1 µM (inactive) | 52.5 µM (inactive) | – | 71.1 µM (inactive) | > 100 µM (inactive) | 22.8 µM (inactive) | 21.1 µM (inactive) | > 100 µM (inactive) | – | 42.8 µM (inactive) | > 100 µM (inactive) | 31.8 µM (inactive) | > 100 µM (inactive) | > 100 µM (inactive) | > 100 µM (inactive) | > 10 µM (inactive) | 32.4 µM (inactive) | 47 µM (inactive) | –
O=C1NC(Cc2ccccc2)C(=O)N2CCCC12 (configuration not stated) | > 100 µM (inactive) | > 100 µM (inactive) | > 100 µM (inactive) | > 100 | > 100 µM (inactive) | > 100 µM (inactive) | > 100 µM (inactive) | > 100 µM (inactive) | > 100 µM (inactive) | – | > 100 µM (inactive) | > 100 µM (inactive) | > 100 µM (inactive) | > 100 µM (inactive) | > 100 µM (inactive) | > 100 µM (inactive) | > 100 µM (inactive) | > 100 µM (inactive) | > 100 µM (inactive) | –
COc1ccc(N2/C(=N/c3ccccc3)SC(=N/S(=O)(=O)c3ccccc3)/C2=N\S(=O)(=O)c2ccccc2)cc1 | 23.3 µM (inactive) | 26.7 µM (inactive) | 17.8 µM (inactive) | 13.3 | – | 16.8 µM (inactive) | 22.6 µM (inactive) | 21.8 µM (inactive) | 12.1 µM (inactive) | 18.7 µM (inactive) | – | – | 13 µM (inactive) | 12.6 µM (inactive) | 34.8 µM (inactive) | 15.8 µM (inactive) | 38.8 µM (inactive) | 20.1 µM (inactive) | 6.82 µM (inactive) | –
COC(=O)C(CC=O)C(=O)C(=O)Nc1cccc(C(F)(F)F)c1 (configuration not stated) | > 100 µM (inactive) | > 100 µM (inactive) | > 100 µM (inactive) | > 100 | > 100 µM (inactive) | > 100 µM (inactive) | > 100 µM (inactive) | > 100 µM (inactive) | > 100 µM (inactive) | – | > 100 µM (inactive) | > 100 µM (inactive) | > 100 µM (inactive) | > 100 µM (inactive) | > 100 µM (inactive) | > 100 µM (inactive) | > 100 µM (inactive) | > 100 µM (inactive) | > 100 µM (inactive) | –
O=C(c1cc(O)ccc1O)c1ccccc1C(Cl)(Cl)Cl | > 100 µM (inactive) | > 100 µM (inactive) | 33 µM (inactive) | > 100 | > 100 µM (inactive) | 71.8 µM (inactive) | 75.5 µM (inactive) | > 100 µM (inactive) | 28.6 µM (inactive) | – | > 100 µM (inactive) | 79.1 µM (inactive) | > 100 µM (inactive) | > 100 µM (inactive) | > 100 µM (inactive) | > 100 µM (inactive) | > 100 µM (inactive) | > 100 µM (inactive) | 71.6 µM (inactive) | –
COC(=O)CN1C(=O)C2(C(=O)OC)OC1(c1ccc([N+](=O)[O-])cc1)C1C(=O)N(c3ccccc3)C(=O)C12 (configuration not stated) | > 100 µM (inactive) | > 100 µM (inactive) | > 100 µM (inactive) | > 100 | > 100 µM (inactive) | – | > 100 µM (inactive) | > 100 µM (inactive) | > 100 µM (inactive) | – | > 100 µM (inactive) | – | > 100 µM (inactive) | > 100 µM (inactive) | > 100 µM (inactive) | > 100 µM (inactive) | > 100 µM (inactive) | > 100 µM (inactive) | > 100 µM (inactive) | > 100 µM (inactive)
